Experimental data published in ChEMBL document CHEMBL1127113, “Diaryl ether/carboxylic acid derivatives of LY255283: Receptor antagonists of leukotriene B4” (Bioorg Med Chem Lett, 1993).
pIC50: −log10 of the molar value.

Columns and labels:
[1] = molecular target: Leukotriene B4 receptor (Cavia porcellus); assay: Inhibition of specific binding of [3H]-LTB4 to LTB4 receptor in guinea pig lung membranes
Leukotriene B4 receptor = Leukotriene B4 receptor (Homo sapiens, UniProt Q9NPC1+Q15722); assay: Inhibition of specific binding of [3H]LTB4 to LTB4 receptor in human neutrophils; format: protein assay
Homo sapiens = species: Homo sapiens; assay: The compound was evaluated for its ability to inhibit LTB4-induced chemotaxis of human neutrophils; format: functional

Compound	Ki [1]	IC50 (Leukotriene B4 receptor)	pIC50 (Homo sapiens)
CCc1cc(C(C)=O)c(O)cc1OCCCOc1ccc(Oc2ccc(C(=O)[O-])cc2)cc1.[Na+]	90 nM	190 nM	–
CCc1cc(C(C)=O)c(O)cc1OCCCOc1cccc(Oc2ccccc2C(=O)[O-])c1.[Na+]	130 nM	290 nM	–
CCCc1c(OCCCCOc2cc(O)c(C(C)=O)cc2CC)cccc1Oc1ccccc1C(=O)[O-].[Na+]	59 nM	94 nM	5.51
CCc1cc(C(C)=O)c(O)cc1OCCCOc1cccc(Oc2cccc(C(=O)[O-])c2)c1.[Na+]	140 nM	460 nM	–
CCCc1cc(Oc2cccc(C(=O)[O-])c2)ccc1OCCCOc1cc(O)c(C(C)=O)cc1CC.[Na+]	256 nM	160 nM	–

Results, then the compound that gave them:

Ki [1]	IC50 (Leukotriene B4 receptor)	pIC50 (Homo sapiens)	Compound
244 nM	130 nM	5.92	CCCc1c(OCCCOc2cc(O)c(C(C)=O)cc2CC)cccc1OCc1ccccc1C(=O)[O-].[Na+]
39 nM	24 nM	6.10	CCCc1c(OCCCOc2cc(O)c(C(C)=O)cc2CC)cccc1Oc1ccccc1C(=O)[O-].[Na+]
1200 nM	330 nM	–	CCCc1cc(Oc2ccc(C(=O)[O-])cc2)ccc1OCCCOc1cc(O)c(C(C)=O)cc1CC.[Na+]
